Measured values published in patent US20060233893A1, “Aqueous solutions for the reduction of fatty tissue” (priority 2004, published 2006).

Tested on: fatty tissue
Test: administration of solutions to fatty tissue in aesthetic treatment of cellulite by lipotomy
Assay type: in vivo
Details: added to solution of approximately from 20 to 90 mOsm/l

| Molecule | efficacy of a highly hypotonic lipotomy solution in the destruction of fatty tissue |
| --- | --- |
| O=C(O)Cc1cc(I)c(Oc2ccc(O)c(I)c2)c(I)c1 [tiratricol, triiodothyroacetic acid] | increased the efficacy |
| phosphatidylcholine | increased the efficacy |
